{"source": "ChEMBL document CHEMBL4219265", "about": "“Piperlongumine derivative, CG-06, inhibits STAT3 activity by direct binding to STAT3 and regulating the reactive oxygen species in DU145 prostate carcinoma cells” (Bioorg Med Chem Lett, 2018)", "key": {"DU-145 [1]": {"tested_on": "DU-145", "assay": "Growth inhibition of human DU145 cells after 48 hrs by WST-1 assay", "format": "functional", "conditions": "DU-145, 48 h"}, "[2]": {"biological_target": "T1, Signal transducer and activator of transcription 3 (Homo sapiens, UniProt P40763)", "T1 sequence (P40763 whole entry)": "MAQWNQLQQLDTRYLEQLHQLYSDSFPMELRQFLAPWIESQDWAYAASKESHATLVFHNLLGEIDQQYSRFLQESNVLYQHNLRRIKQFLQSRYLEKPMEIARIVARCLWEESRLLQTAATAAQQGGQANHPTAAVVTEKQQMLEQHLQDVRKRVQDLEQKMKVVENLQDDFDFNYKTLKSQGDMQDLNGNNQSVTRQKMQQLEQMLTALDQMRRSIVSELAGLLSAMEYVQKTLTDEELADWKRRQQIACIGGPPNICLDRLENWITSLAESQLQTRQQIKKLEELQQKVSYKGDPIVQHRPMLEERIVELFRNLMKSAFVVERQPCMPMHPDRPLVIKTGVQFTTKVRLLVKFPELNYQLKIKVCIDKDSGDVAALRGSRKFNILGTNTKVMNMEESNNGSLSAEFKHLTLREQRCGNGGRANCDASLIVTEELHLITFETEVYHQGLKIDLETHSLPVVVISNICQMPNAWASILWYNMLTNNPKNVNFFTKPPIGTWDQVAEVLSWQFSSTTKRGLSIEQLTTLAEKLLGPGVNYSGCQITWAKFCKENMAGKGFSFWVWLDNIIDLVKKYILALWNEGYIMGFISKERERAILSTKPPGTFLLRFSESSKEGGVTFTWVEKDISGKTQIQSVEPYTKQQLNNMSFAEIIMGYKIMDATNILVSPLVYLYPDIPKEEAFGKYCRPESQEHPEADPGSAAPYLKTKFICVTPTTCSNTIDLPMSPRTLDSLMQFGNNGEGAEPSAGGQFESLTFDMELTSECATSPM", "assay": "Inhibition of STAT3 phosphorylation at Tyr705 residues in human DU145 cells assessed as ratio of phosphorylated STAT3 protein level to GAPDH protein level at 1 uM after 24 hrs by Western blot analysis (reference value: 1)", "format": "cell-based"}, "DU-145 [3]": {"tested_on": "DU-145", "assay": "Effect on total STAT3 protein level in human DU145 cells assessed as ratio of STAT3 protein level to GAPDH protein level at 0.1 uM after 24 hrs by Western blot analysis (reference value: 1)", "format": "ADME, cell-based", "conditions": "du-145, 24 h"}, "DU-145 [4]": {"tested_on": "DU-145", "assay": "Effect on total STAT3 protein level in human DU145 cells assessed as ratio of STAT3 protein level to GAPDH protein level at 5 uM after 6 hrs by Western blot analysis (reference value: 1)", "format": "ADME, cell-based", "conditions": "du-145, 6 h"}, "DU-145 [5]": {"tested_on": "DU-145", "assay": "Effect on total STAT3 protein level in human DU145 cells assessed as ratio of STAT3 protein level to GAPDH protein level at 5 uM after 12 hrs by Western blot analysis (reference value: 1)", "format": "ADME, cell-based", "conditions": "du-145, 12 h"}, "[6]": {"biological_target": "T1, Signal transducer and activator of transcription 3", "assay": "Inhibition of STAT3 in human DU145 cells assessed as ratio of Bcl-2 protein level to tubulin protein level at 5 uM after 48 hrs by Western blot analysis (reference value: 1)", "format": "cell-based"}, "[7]": {"biological_target": "T1, Signal transducer and activator of transcription 3", "assay": "Inhibition of STAT3 in human DU145 cells assessed as ratio of survivin protein level to tubulin protein level at 5 uM after 48 hrs by Western blot analysis (reference value: 1)", "format": "cell-based"}, "[8]": {"biological_target": "T1, Signal transducer and activator of transcription 3", "assay": "Inhibition of IL-6-mediated STAT3 phosphorylation in human LNCAP cells assessed as ratio of phosphorylated STAT3 protein level to GAPDH protein level at 5 uM preincubated for 12 hrs followed by IL-6 stimulation for 30 mins by Western blot analysis (reference value: 7.5)", "format": "cell-based"}, "DU-145 [9]": {"tested_on": "DU-145", "assay": "Cell cycle arrest in human DU145 cells assessed as accumulation at S phase at 5 uM after 12 hrs by flow cytometry (reference value: 6.6%)", "format": "functional"}, "DU-145 [10]": {"tested_on": "DU-145", "assay": "Induction of apoptosis in human DU145 cells at 5 uM after 24 hrs by flow cytometry (reference value: 0.61%)", "format": "functional"}, "DU-145 [11]": {"tested_on": "DU-145", "assay": "Cell cycle arrest in human DU145 cells assessed as accumulation at G2/M phase at 5 uM after 24 hrs by flow cytometry (reference value: 18.12%)", "format": "functional"}, "DU-145 [12]": {"tested_on": "DU-145", "assay": "Induction of apoptosis in human DU145 cells at 5 uM after 48 hrs by flow cytometry (reference value: 0.61%)", "format": "functional"}, "[13]": {"biological_target": "T1, Signal transducer and activator of transcription 3", "assay": "Binding affinity to STAT3 in human DU145 cell lysates assessed as reduction in pronase-induced STAT3 digestion by measuring ratio of STAT3 protein level to GAPDH protein level at 50 uM incubated for 1 hr followed by 0.02% pronase addition for 10 mins by Western blot analysis (reference value: 0.6)"}, "[14]": {"biological_target": "T1, Signal transducer and activator of transcription 3", "assay": "Binding affinity to STAT3 in human DU145 cell lysates assessed as reduction in pronase-induced STAT3 digestion by measuring ratio of STAT3 protein level to GAPDH protein level at 50 uM incubated for 1 hr followed by 0.05% pronase addition for 10 mins by Western blot analysis (reference value: 0.4)"}, "[15]": {"biological_target": "T1, Signal transducer and activator of transcription 3", "assay": "Stabilization of STAT3 in human DU145 cell lysates by measuring ratio of STAT3 protein level to GAPDH protein level at 50 uM incubated for 1 hr in absence of pronase by Western blot analysis (reference value: 1)"}, "[16]": {"biological_target": "T1, Signal transducer and activator of transcription 3", "assay": "Binding affinity to STAT3 in human DU145 cell lysates assessed as reduction in pronase-induced STAT3 digestion by measuring ratio of STAT3 protein level to GAPDH protein level at 1 uM incubated for 1 hr in absence of pronase by Western blot analysis (reference value: 1)"}, "[17]": {"biological_target": "T1, Signal transducer and activator of transcription 3", "assay": "Binding affinity to STAT3 in human DU145 cell lysates assessed as reduction in pronase-induced STAT3 digestion by measuring ratio of STAT3 protein level to GAPDH protein level incubated for 1 hr followed by 0.05% pronase addition for 10 mins by Western blot analysis"}, "DU-145 [18]": {"tested_on": "DU-145", "assay": "Induction of intracellular ROS generation in human DU145 cells at 5 uM by DCFH-DA probe based flow cytometry", "format": "functional, cell-based", "conditions": "TDE = time-dependent effect"}}, "data": [{"compound": "C=C(C)C(=O)N(Cc1ccc(Br)cc1)C(=O)/C=C/c1cc(OC)c(OC)c(OC)c1", "values": [{"measurement": "GI50", "setting": "DU-145 [1]", "value": 900, "unit": "nM"}, {"measurement": "Ratio", "setting": "[2]", "value": 0.6}, {"measurement": "Ratio", "setting": "DU-145 [3]", "value": 1.1}, {"measurement": "Ratio", "setting": "DU-145 [4]", "value": 1}, {"measurement": "Ratio", "setting": "DU-145 [5]", "value": 0.9}, {"measurement": "Ratio", "setting": "[6]", "value": 0.7}, {"measurement": "Ratio", "setting": "[7]", "value": 0.7}, {"measurement": "Ratio", "setting": "[8]", "value": 1.6}, {"measurement": "Activity", "setting": "DU-145 [9]", "value": 8.76, "unit": "%"}, {"measurement": "Activity", "setting": "DU-145 [10]", "value": 0.72, "unit": "%"}, {"measurement": "Activity", "setting": "DU-145 [11]", "value": 22.2, "unit": "%"}, {"measurement": "Activity", "setting": "DU-145 [12]", "value": 7.61, "unit": "%"}, {"measurement": "Ratio", "setting": "[13]", "value": 0.6}, {"measurement": "Ratio", "setting": "[14]", "value": 0.5}, {"measurement": "Ratio", "setting": "[15]", "value": 1}, {"measurement": "Ratio", "setting": "[16]", "value": 1}, {"measurement": "Activity", "setting": "[17]", "value": "Dose-dependent effect"}, {"measurement": "Activity", "setting": "DU-145 [18]", "value": "Tde"}]}]}
